Experiment [1] concerns Wnt activity (SW480 colon carcinoma cells stably expressing the Sp5-Luc reporter gene). The experiment can be described thus: Sp5-Luc reporter gene screening assay for Wnt activity. Type of experiment: cell-based. Particulars: Homo sapiens. The procedure, abridged:
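The SW480 cells carry a lentiviral luciferase reporter driven by a Sp5 promoter with eight TCF/LEF sites. They were plated at 10,000 cells/well in 10% FCS overnight, then pinned with 50 nl of 3-fold dilutions (10 mM top source concentration) into 50 μl.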
A general note: In a reporter assay the amount or activity of a reporter protein is the signal.

Experiment [2] concerns primary human fibroblasts derived from IPF patients (LL29 cells). The experiment can be described thus: Inhibition of the fibrotic process in TGF-β1 treated IPF patient fibroblasts (αSMA staining). In kind it is cell-based. Particulars: Fibroblast, 96 h, LL29 cells treated with TGF-β1 (20 ng/mL), 4 days, read-out: Inhibition of fibrosis EC50. The source says: The above synthesized compounds were screened using primary human fibroblasts (derived from IPF patients) treated with TGF-β1 to determine their ability to inhibit the fibrotic process.
Primary human fibroblasts derived from IPF patients (LL29 cells) [^1Xiaoqiu Liu, et. al., “Fibrotic Lung Fibroblasts Show Blunted Inhibition by cAMP Due to Deficient cAMP Response Element-Binding Protein Phosphorylation”, Journal of Pharmacology and Experimental Therapeutics (2005), 315(2), 678-687; ^2Watts, K. L., et. al., “RhoA signaling modulates cyclin D1 expression in human lung fibroblasts; implications for idiopathic pulmonary fibrosis”, Respiratory Research (2006), 7(1), 88] were obtained from American Type Culture Collection (ATCC) and expanded in F12 medium supplemented with 15% Fetal Bovine Serum and Penicillin/Streptomycin.
Each compound was dissolved in DMSO as a 10 mM stock and used to prepare compound source plates. Serial dilution (1:2, 11-point dose-response curves from 10 μM to 1.87 nM) and compound transfer was performed using the ECHO 550 (Labcyte, Sunnyvale, Calif.) into 384-well clear bottom assay plates (Greiner Bio-One) with appropriate DMSO backfill for a final DMSO concentration of 0.1%. LL29 cells were plated at 1,500 cells/well in 80 μl/well F12 medium supplemented with 1% Fetal Bovine Serum. One hour after addition of the cells, TGF-β1 (Peprotech; 20 ng/mL) was added to the plates to induce fibrosis (ref. 1 and 2 above). Wells treated with TGF-β1 and containing DMSO were used as controls. Cells were incubated at 37° C. and 5% CO2 for 4 days. Following incubation for 4 days, SYTOX green nucleic acid stain (Life Technologies [Thermo Fisher Scientific]) was added to the wells at a final concentration of 1 uM and incubated at room temperature for 30 min. Cells were then fixed using 4% formaldehyde (Electron Microscopy Sciences), washed 3 times with PBS followed by blocking and permeabilization using 3% Bovine Serum Albumin (BSA; Sigma) and 0.3% Triton X-100 (Sigma) in PBS. Cells were then stained with antibody specific to α-smooth muscle actin (αSMA; Abcam) (ref. 1 and 2 above) in 3% Bovine Serum Albumin (BSA; Sigma) and 0.3% Triton X-100 (Sigma) in PBS, and incubated overnight at 4° C. Cells were then washed 3 times with PBS, followed by incubation with Alexa Flor-647 conjugated secondary antibody (Life Technologies [Thermo Fisher Scientific]) and DAPI at room temperature for 1 hour. Cells were then washed 3 times with PBS and plates were sealed for imaging. αSMA staining was imaged by excitation at 630 nm and emission at 665 nm and quantified using the Compartmental Analysis program on the CellInsight CX5 (Thermo Scientific). Dead or apoptotic cells were excluded from analysis based on positive SYTOX green staining. % of total cells positive for αSMA were counted in each well and normalized to the average of 11 wells treated with TGF-β1 on the same plate using Dotmatics' Studies Software. The normalized averages (fold change over untreated) of 3 replicate wells for each compound concentration were used to create dose-responses curves and EC50 values were calculated using non-linear regression curve fit in the Dotmatics' Studies Software. The EC50 values are reported.

As usually defined, the IC50 is the concentration at which inhibition is half-maximal. High values mean weaker potency, low ones greater potency. A word on the EC50: it is the concentration that produces a half-maximal response. Regarding `Fc1cccc(-c2ccnc3[nH]c(-c4n[nH]c5ncc(-c6cncc(OC7CCNCC7)c6)cc45)nc23)c1` [Compound 916, 3-(7-(3-Fluorophenyl)-3H-imidazo[4,5-b]pyridin-2-yl)-5-(5-(piperidin-4-yloxy)pyridin-3-yl)-1H-pyrazolo[3,4-b]pyridine], the IC50 in experiment [1] is over 10 µM. Moreover, the half-maximal effective concentration (EC50) in experiment [2] is at most 0.009 µM.
For `Cc1cn(-c2ccnc3[nH]c(-c4n[nH]c5ncc(-c6cncc(CN7CCCC7)c6)cc45)nc23)cn1` [Compound 171, 3-(7-(4-Methyl-1H-imidazol-1-yl)-3H-imidazo[4,5-b]pyridin-2-yl)-5-(5-(pyrrolidin-1-ylmethyl)pyridin-3-yl)-1H-pyrazolo[3,4-b]pyridine] the same measures were 0.276 µM and at most 0.009 µM.
For `Cc1ccc(-c2ccnc3[nH]c(-c4n[nH]c5ncc(-c6cncc(CN7CCCCC7)c6)cc45)nc23)s1` [Compound 351, 3-(7-(5-Methylthiophen-2-yl)-3H-imidazo[4,5-b]pyridin-2-yl)-5-(5-(piperidin-1-ylmethyl)pyridin-3-yl)-1H-pyrazolo[3,4-b]pyridine] the same measures were over 10 µM and at least 9.99 µM.
In experiment [1], `Fc1ccc(-c2ccnc3[nH]c(-c4n[nH]c5ncc(-c6cncc(CN7CCCC7)c6)cc45)nc23)cc1` [Compound 33, 3-(7-(4-Fluorophenyl)-3H-imidazo[4,5-b]pyridin-2-yl)-5-(5-(pyrrolidin-1-ylmethyl)pyridin-3-yl)-1H-pyrazolo[3,4-b]pyridine] registered an IC50 of 0.144 µM. Further, in experiment [2], the 50% effective concentration (EC50) is 7.8 µM.
Consider `CN(C)Cc1cncc(-c2cnc3[nH]nc(-c4nc5c(-c6cccs6)ccnc5[nH]4)c3c2)c1` [Compound 297, N,N-Dimethyl-1-(5-(3-(7-(thiophen-2-yl)-3H-imidazo[4,5-b]pyridin-2-yl)-1H-pyrazolo[3,4-b]pyridin-5-yl)pyridin-3-yl)methanamine], for which, in experiment [1], the IC50 is over 10 µM. In experiment [2], the EC50 was at least 9.99 µM.
In experiment [1], `CCNCc1cncc(-c2cnc3[nH]nc(-c4nc5c(-c6ccoc6)ccnc5[nH]4)c3c2)c1` [Compound 264, N-((5-(3-(7-(Furan-3-yl)-3H-imidazo[4,5-b]pyridin-2-yl)-1H-pyrazolo [3,4-b]pyridin-5-yl)pyridin-3-yl)methyl)ethanamine] displayed an IC50 of over 10 µM. In experiment [2], the EC50 was at most 0.009 µM.
In the case of `Fc1cccc(-c2ccnc3[nH]c(-c4n[nH]c5ncc(C6CCNCC6)cc45)nc23)c1` [Compound 909, 3-(7-(3-Fluorophenyl)-3H-imidazo[4,5-b]pyridin-2-yl)-5-(piperidin-4-yl)-1H-pyrazolo[3,4-b]pyridine], the IC50 in experiment [1] is over 10 µM. Moreover, the EC50 in experiment [2] is at least 9.99 µM.
In experiment [1], `COc1cncc(-c2cnc3[nH]nc(-c4nc5c(-c6cccc(F)c6)ccnc5[nH]4)c3c2)c1` [Compound 920, 3-(7-(3-Fluorophenyl)-3H-imidazo[4,5-b]pyridin-2-yl)-5-(5-methoxypyridin-3-yl)-1H-pyrazolo[3,4-b]pyridine] yielded an IC50 of 1.05 µM. Further, the EC50 in experiment [2] was at most 0.009 µM.
The molecule `CN(C)Cc1cncc(-c2cnc3[nH]nc(-c4nc5c(-c6cccc(F)c6)ccnc5[nH]4)c3c2)c1` [Compound 10, 1-(5-(3-(7-(3-Fluorophenyl)-3H-imidazo[4,5-b]pyridin-2-yl)-1H-pyrazolo[3,4-b]pyridin-5-yl)pyridin-3-yl)-N,N-dimethylmethanamine] returned an IC50 in experiment [1] of over 10 µM. The EC50 in experiment [2] was determined as 2.55 µM.
In experiment [1], `CC(C)CC(=O)Nc1cncc(-c2cnc3[nH]nc(-c4nc5c(-c6ccc(F)s6)ccnc5[nH]4)c3c2)c1` [Compound 312, N-(5-(3-(7-(5-Fluorothiophen-2-yl)-3H-imidazo[4,5-b]pyridin-2-yl)-1H-pyrazolo[3,4-b]pyridin-5-yl)pyridin-3-yl)-3-methylbutanamide] returned an IC50 of 0.027 µM. Further, the EC50 in experiment [2] worked out at 0.189 µM.

The record behind these values is patent US10526347B2, “3-(3H-imidazo[4,5-B]pyridin-2-yl)-1H-pyrazolo[3,4-B]pyridine and therapeutic uses thereof” (Samumed, LLC, priority 2014, dated 2020).
